Molecular target: T1, H3 receptors (Cavia porcellus, UniProt Q9JI35)
T1 construct: The source of the H3 receptors in this experiment was guinea pig brain; from tissue; host or cells: guinea pig brain membranes
Assay: H3-Receptor Binding Assay
Conditions: guinea pig brain membranes; 3 nM [3H]R-α-methyl histamine or 3 nM [3H]Nα-methyl histamine; 30° C., 30 min
Procedure: Using the appropriate indolene starting materials in a similar procedure, the following compounds were prepared: [drawing 145] General Procedure for H3-Receptor Binding Assay
The source of the H3 receptors in this experiment was guinea pig brain. The animals weighed 400-600 g. The brain tissue was homogenized with a solution of 50 mM Tris, pH 7.5. The final concentration of tissue in the homogenization buffer was 10% w/v. The homogenates were centrifuged at 1,000×g for 10 min. in order to remove clumps of tissue and debris. The resulting supernatants were then centrifuged at 50,000×g for 20 min. in order to sediment the membranes, which were next washed three times in homogenization buffer (50,000×g for 20 min. each). The membranes were frozen and stored at −70° C. until needed.
All compounds to be tested were dissolved in DMSO and then diluted into the binding buffer (50 mM Tris, pH 7.5) such that the final concentration was 2 μg/ml with 0.1% DMSO. Membranes were then added (400 μg of protein) to the reaction tubes. The reaction was started by the addition of 3 nM [^3H]R-α-methyl histamine (8.8 Ci/mmol) or 3 nM [^3H]N^α-methyl histamine (80 Ci/mmol) and continued under incubation at 30° C. for 30 min. Bound ligand was separated from unbound ligand by filtration, and the amount of radioactive ligand bound to the membranes was quantitated by liquid scintillation spectrometry. […]

T1 sequence (Q9JI35 whole entry): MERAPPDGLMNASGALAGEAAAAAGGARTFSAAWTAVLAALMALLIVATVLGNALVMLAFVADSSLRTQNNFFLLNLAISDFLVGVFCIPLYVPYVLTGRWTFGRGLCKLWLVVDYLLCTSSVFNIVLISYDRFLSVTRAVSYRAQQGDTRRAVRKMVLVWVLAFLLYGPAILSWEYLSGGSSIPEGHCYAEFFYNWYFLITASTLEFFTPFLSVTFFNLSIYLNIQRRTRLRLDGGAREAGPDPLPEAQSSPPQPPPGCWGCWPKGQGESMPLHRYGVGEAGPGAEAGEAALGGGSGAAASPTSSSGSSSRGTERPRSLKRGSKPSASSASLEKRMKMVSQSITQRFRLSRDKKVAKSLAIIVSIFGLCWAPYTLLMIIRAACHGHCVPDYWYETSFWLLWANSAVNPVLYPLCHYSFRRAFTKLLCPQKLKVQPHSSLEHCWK

Ki: 1.5 nM
SMILES: Nc1cc(CN2CCC(C(=O)N3CCC(c4c(-c5ccccn5)n(Cc5ccccn5)c5ccccc45)CC3)CC2)ccn1 [Example 5]

Source: US6951871B2, “Indole derivatives useful as histamine H3 antagonists” (Schering Corporation, priority 2002, dated 2005)
